Experimental data taken from the NIST ThermoML archive (doi:10.1016/j.fluid.2013.05.019).
Numbers after ± are expanded uncertainties.

Key:
[1] = Boiling temperature at pressure P; conditions: 101 kPa; Liquid; Ebulliometric method (Recirculating still)
[2] = Liquid, Manometric method

Structure (SMILES): C=C(C)C(C)C [2,3-dimethyl-1-butene]
- Boiling temperature at pressure P [1]: 55.73 ± 0.04 °C

Structure (SMILES): CC(C)=C(C)C [2,3-dimethyl-2-butene]
- Boiling temperature at pressure P [1]: 73.00 ± 0.04 °C

Structure (SMILES): Cc1ccsc1 [3-methylthiophene]
- Boiling temperature at pressure P [1]: 115.20 ± 0.04 °C

Structure (SMILES): CCCCCCC [heptane]
- Boiling temperature at pressure P [1]: 98.49 ± 0.04 °C
- vapor or sublimation pressure ([2]; 370.27 K): 97.43 ± 0.32 kPa
- vapor or sublimation pressure ([2]; 370.74 K): 98.52 ± 0.33 kPa
- vapor or sublimation pressure ([2]; 370.93 K): 99.39 ± 0.34 kPa
- vapor or sublimation pressure ([2]; 371.13 K): 99.78 ± 0.33 kPa
- vapor or sublimation pressure ([2]; 371.52 K): 101.07 ± 0.34 kPa
- vapor or sublimation pressure ([2]; 372.25 K): 103.43 ± 0.32 kPa
- vapor or sublimation pressure ([2]; 372.36 K): 103.56 ± 0.35 kPa
- vapor or sublimation pressure ([2]; 372.56 K): 104.41 ± 0.34 kPa
- vapor or sublimation pressure ([2]; 372.76 K): 104.67 ± 0.35 kPa
- vapor or sublimation pressure ([2]; 372.97 K): 105.83 ± 0.36 kPa
- vapor or sublimation pressure ([2]; 373.17 K): 106.29 ± 0.34 kPa
- vapor or sublimation pressure ([2]; 373.48 K): 107.02 ± 0.34 kPa

Structure (SMILES): c1ccsc1 [thiophene]
- Boiling temperature at pressure P [1]: 84.27 ± 0.04 °C
